We go through one compound from article PMC6829886, “Inhibition of Non-Small Cell Lung Cancer Cells by Oxy210, an Oxysterol-Derivative that Antagonizes TGFβ and Hedgehog Signaling” (Cells, 2019).

For one series, the system named is A549 cells. Description: TGFβ-induced EMT in A549 cells (morphology, Q-RT-PCR). In kind it is cell-based, human. As for the experimental part:
Total RNA was extracted with the RNeasy Plus Mini Kit from Qiagen (Hilden, Germany) according to the manufacturer’s instructions. One microgram of RNA was reverse-transcribed using an iScript Reverse Transcription Supermix from Bio-Rad Laboratories (Hercules, CA, USA) to make single-stranded cDNA. The cDNAs were then mixed with Qi SYBR Green Supermix (Bio-Rad) for quantitative RT-PCR assay using a Bio-Rad I-cycler IQ quantitative thermocycler. All PCR samples were prepared in triplicate wells in a 96-well plate. After 40 cycles of PCR, melt curves were examined in order to ensure primer specificity. Fold changes in gene expression were calculated using the ΔΔCt method. Primers used for mouse were as follows: Oaz1 (5′-CCACTGCTTCGCCAGAGAG-3′) and (5′-CCCGGACCCAGGTTACTA-3′), Gli1 (5′- […]-3′ and 5′- GCT GATCCAGCCTAAGGTTCTC-3′), Ptch1 (5′-CCATCGGCGACAAGAACC-3′ and 5′-[…]-3′), Thbs1 (5′-[…]-3′ and 5′-CGGGGATCAGGTTGGCATT-3′), Cryab (5′-[…]-3′ and 5′-[…]-3′), Egr2 (5′-[…]-3′ and 5′-[…]-3′), CTGF (5′-GGGCCTCTTCTGCGATTTC-3′ and 5′-[…]-3′).
Primers used for human were as follows: GAPDH (5′- […]-3′ and 5′- […]-3′), SHH (5′- CGGAGCGAGGAAGGGAAAG-3′) and (5′- […]-3′), GLI1 (5′- GAAGCCGAGCCGAGTATC-3′ and 5′-[…]-3′), GLI2 (5′-[…]-3′ and 5′-[…]-3′), Fn-EDA (5′- […]-3′ and 5′- […]-3′), E-Cadherin (5′- […]-3′ and 5′- TCCCAGGCGTAGACCAAGA-3′), SNAIL (5′- […]-3′ and 5′- […]-3′), N-Cadherin (5′- […]-3′ and 5′- […]-3′), Vimentin (5′- […]-3′ and 5′- […]-3′), ZO-1 (5′- […]-3′ and 5′- […]-3′), MMP2 (5′- […]-3′ and 5′- […]-3′), MMP9 (5′-[…]-3′ and 5′-[…]).
Figure 8 Inhibition of TGFβ-induced EMT in NSCLC cells. (a) A549 cells were treated with TGFβ in the absence or presence of Oxy210 in RPMI 1640 containing 2% FBS for 5 days. The cells were washed with PBS and then fixed with 2% formaldehyde in PBS at room temperature for 15 min. Formaldehyde was then removed, cells washed with PBS and stained with 4% Trypan Blue for 5 min. Phase contrast images were obtained using a 20X objective lens. A549 (b,c) and H2030 (d) cells were treated in RPMI 1640 containing 0.1% FBS overnight and then pretreated for 2 h with Oxy210 in RPMI 1640 containing 0.1% FBS. Next, cells were treated with TGFβ in the absence or presence of Oxy210. After 48 h, RNA was extracted and analyzed by Q-RT-PCR for the expression of the genes as indicated and normalized to GAPDH expression. Data from a representative experiment are reported as the mean of triplicate determinations ± SD (** p < 0.01 vs. TGFβ treated cells; ## p < 0.01 vs. control).

A short description of a further series: pKa. In kind it is physicochemical. Conditions: printed in Figure 1, method not stated. The source says:
Figure 1 The molecular structures of Cholesterol, Oxy8, Oxy133, Oxy16, Oxy186 and Oxy210. TEXT PRINTED IN THE PICTURE: Oxy210: pKa ~ 5

The nature of series [1]: Single oral dose pharmacokinetic study in mice. In kind it is in vivo. To be noted: mouse, plasma, oral gavage, single dose 50 mg/kg. Here is the method: In an initial assessment of drug-like properties of Oxy210, we performed a pharmacokinetic (PK) study in mice. Oxy210, formulated in 3% DMSO + 7% Ethanol + 5% PEG400 + 85% corn oil, was administered to balb/c mice by oral gavage as a single dose of 50 mg/kg. Plasma samples were taken at 10 min, 30 min, 1 h, 2 h, 4 h, and 8h, followed by LC/MS analysis. […] Additional PK studies in mice were performed with Oxy210 in a dose escalation study with repeated once daily oral dosing (50 mg/kg, 200 mg/kg and 400 mg/kg) for 7 days.
Figure 13 Drug-like properties of Oxy210. (a) A single dose of Oxy210 at 50 mg/kg, formulated in 3% DMSO + 7% Ethanol + 5% PEG400 + 85% corn oil, was administered to balb/c mice by oral gavage. Plasma samples were taken at 10 min, 30 min, 1h, 2h, 4h, 6h, and 8h, followed by LC/MS analysis of the plasma. (b) Evolution of Oxy210 and Oxy186 from parent compound Oxy16 and their drug-like properties.

Values joined by “and” are separate entries in the source; they are usually repeats but may differ in a detail not shown here. Identical values can stand only once.

One may read the pKa as the pH at which an ionisable group is half protonated. Low readings indicate a stronger acid or weaker base, high ones a weaker acid or stronger base. By MRT is commonly meant a mean duration of stay, worked out from the concentration-time curve. The term AUC(0-inf) denotes total exposure, with the tail of the curve extrapolated. A high value points to high exposure. As usually defined, the Tmax is the time from dosing to the highest level. The Cmax is the highest concentration seen after dosing.

As to `C[C@]12CC[C@H]3[C@@H](CC=C4C[C@@H](O)CC[C@@]43C)[C@@H]1CC[C@@H]2[C@](C)(O)CCc1cccnc1` [Oxy210, (3S,8S,9S,10R,13S,14S,17S)-17-((R)-2-hydroxy-4-(pyridin-3-yl)butan-2-yl)-10,13-dimethyl-2,3,4,7,8,9,10,11,12,13,14,15,16,17-tetradecahydro-1H-cyclopenta[a]phenanthren-3-ol], in the series with A549 cells, the “TGFβ-induced EMT morphology changes” value is listed as “reversed”. Besides, in the series with A549 cells (48 h), the “expression of E-Cad downregulated by TGFβ” value is listed as “partially rescued”; the “expression of mesenchymal genes upregulated by TGFβ (SNAIL, ZO-1, Fn-EDA, N-Cad)” value is given as “inhibited the expression of mesenchymal genes”; the “mRNA expression of MMP2 and MMP9 induced by TGFβ” value was “inhibited the mRNA expression”. In addition, in the series “pKa”, the pKa is roughly 5. In addition, the MRT in series [1] (balb/c, po, 50 mg/kg, read-out: mean residence time (MRT)) amounted to 8 h. Also, in series [1] (balb/c mice), the AUC(0-inf) was determined as 9210 ng·h/mL; the Tmax is 0.5 h; the Cmax was 1970 ng/mL and 4.7 µM.
